Reference: US7241611B2, “Methods for synthesis of holo-photoactive yellow protein” (Universiteit Gent, priority 2002, dated 2007)
Read-outs that look alike come from different tables or passages of the source.

Tests used:
[1] = test system: tyrosine ammonia lyase (TAL) from Rhodobacter capsulatus; format: biochemical; conditions: for pH optimum of activity (TAL with L-tyrosine, PAL with L-phenylalanine): pH 6
Procedure: Both activities were followed by the following spectrophotometric assay (adapted from Rösler et al. (1997)): PAL activity was assayed by following cinnamic acid formation at 280 nm using a double beam spectrophotometer (Uvikon, Kontron, Herts, United Kingdom) in 10 mM Tris buffer at 35° C. The pH optimum was determined between the pH values 6-10. The substrate concentrations were varied between 5 mM and 0.2 mM. TAL activity was assayed by monitoring p-hydroxycinnamic acid formation at 310 nm and 35° C. The substrate concentration was varied between 2 mM and 0.01 mM. All reactions were performed in a total volume of 1 ml.
FIG. 3 presents Lineweaver-Burk plots for the two substrates at their respective pH optimum.
Since PAL and TAL sequences show significant homology to histidine ammonia lyases (HAL), which are common enzymes in bacteria, we also tested L-histidine as a substrate for the recombinant enzyme.

[2] = biological target: T1, PAL/TAL enzyme from the monocot Zea mays (Zea mays, UniProt Q8VXG7); conditions: pH 8.7; cited from earlier work
[3] = biological target: T1, PAL/TAL enzyme from the monocot Zea mays; assay: Kinetic parameters of the PAL/TAL enzyme from maize (Rösler et al., 1997); format: biochemical; conditions: pH 8.7
[4] = biological target: PAL-1 isozyme from parsley (Petroselinum crispum) (Petroselinum crispum, UniProt P24481); conditions: cited from earlier work
[5] = Laser flash photolysis, photocycle kinetics of PYP; set-up: species or system Halorhodospira halophila; conditions: flash 440 nm, universal buffer pH 8.0
Procedure: The laser flash photolysis and spectroscopy apparatus and the methods used for data analysis were as previously described (Meyer et al., 1987). The PYP sample was dialysed against a universal buffer (20 mM MES, 20 mM HEPES, and 20 mM glycine, pH 8.0) prior to the experiment. We used 1 ml samples, with an absorbance at 445 nm of approximately 0.2, for the kinetic measurements. By flashing the PYP sample with laser light of 440 nm, we could determine the kinetics of the light-induced absorbance changes. FIGS. 9a and 9b show the I1→I2 bleach reaction and the I2→P recovery of our in vivo formed holo-PYP. It can be seen that after a flash with 440 nm light, the PYP went through a normal photocycle. […] The rate of recovery was 7.2 s^−1, compared to 6.3 s^−1 for wild-type and chemically reconstituted PYP (Meyer et al., 1987; Genick et al., 1997). […] Since this is different from the 3.4 ms^−1 reported by Genick et al. (1997), we repeated the experiment under our conditions with native PYP and found the rate to be 1.3 ms^−1. This is approximately the same as what we measured with our recombinant PYP.

[6] = reported by Genick et al. (1997); cited from earlier work

T1 sequence (Q8VXG7 whole entry): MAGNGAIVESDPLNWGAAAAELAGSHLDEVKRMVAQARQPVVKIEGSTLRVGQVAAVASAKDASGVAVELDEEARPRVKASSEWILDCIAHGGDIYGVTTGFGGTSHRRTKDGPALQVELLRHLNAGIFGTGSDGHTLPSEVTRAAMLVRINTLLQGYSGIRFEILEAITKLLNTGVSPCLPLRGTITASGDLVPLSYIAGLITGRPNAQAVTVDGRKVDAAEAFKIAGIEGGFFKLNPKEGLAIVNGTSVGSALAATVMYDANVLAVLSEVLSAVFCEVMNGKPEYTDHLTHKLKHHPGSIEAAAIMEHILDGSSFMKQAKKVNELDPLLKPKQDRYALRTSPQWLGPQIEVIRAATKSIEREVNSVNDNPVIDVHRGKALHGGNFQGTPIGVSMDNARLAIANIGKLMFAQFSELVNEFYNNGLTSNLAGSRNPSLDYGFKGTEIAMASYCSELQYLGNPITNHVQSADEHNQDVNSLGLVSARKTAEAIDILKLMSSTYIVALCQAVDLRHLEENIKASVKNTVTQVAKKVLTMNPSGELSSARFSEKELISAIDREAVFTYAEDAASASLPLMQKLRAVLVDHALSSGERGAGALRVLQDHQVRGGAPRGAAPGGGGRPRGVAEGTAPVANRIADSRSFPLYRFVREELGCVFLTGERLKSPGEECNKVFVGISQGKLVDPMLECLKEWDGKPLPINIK

N[C@@H](Cc1ccccc1)C(=O)O [L-Phenylalanine, L-phenylalanine]
fold higher Km for L-Phe than for L-Tyr [1]: 80 fold
pH optimum of activity (TAL with L-tyrosine, PAL with L-phenylalanine) [1]: 9.4
Km [2]: 270 µM
kcat [2]: 10 s⁻¹
fold higher Km value for L-Phe compared to L-Tyr [3]: 15 fold
Km [4]: 17.2 µM
kcat [4]: 22 s⁻¹

N[C@@H](Cc1c[nH]c2ccccc12)C(=O)O [L-tryptophan]
activity as substrate ([1]; up to a 5 mM concentration): no activity was detected

N[C@@H](Cc1ccc(O)cc1)C(=O)O [L-Tyrosine, L-tyrosine]
pH optimum of activity (TAL with L-tyrosine, PAL with L-phenylalanine) [1]: 8.5
Km [2]: 19 µM
kcat [2]: 0.9 s⁻¹
kcat [4]: 0.3 s⁻¹

N[C@@H](Cc1c[nH]cn1)C(=O)O [L-histidine]
activity as substrate (histidine ammonia lyase activity) ([1]; spectrophotometric assay of Schwede et al. (1999)): could not detect any activity

B1: recombinant PYP: holo-photoactive yellow protein formed in vivo in Escherichia coli with TAL, pCL and pyp genes (protein, UniProt P16113 1-125, looked up)
Photoactive yellow protein: MEHVAFGSEDIENTLAKMDDGQLDGLAFGAIQLDGDGNILQYNAAEGDITGRDPKQVIGKNFFKDVAPCTDSPEFYGKFKEGVASGNLNTMFEYTFDYQMTPTKVKVHMKKALSGDSYWVFVKRV
modifications: recombinant holo form, expressed in E. coli
rate constant of the bleach (I1→I2) [5]: 1.6 ms^−1

B2: wild-type PYP: wild-type Halorhodospira halophila photoactive yellow protein (protein, UniProt P16113 1-125, looked up)
Photoactive yellow protein: MEHVAFGSEDIENTLAKMDDGQLDGLAFGAIQLDGDGNILQYNAAEGDITGRDPKQVIGKNFFKDVAPCTDSPEFYGKFKEGVASGNLNTMFEYTFDYQMTPTKVKVHMKKALSGDSYWVFVKRV
modifications: holo form with chromophore
rate constant of the bleach (I1→I2) [5]: 1.3 ms^−1

B3: chemically reconstituted PYP: recombinant apo-PYP with the chromophore chemically attached (Genick et al., 1997) (protein, UniProt P16113 1-125, looked up)
Photoactive yellow protein: MEHVAFGSEDIENTLAKMDDGQLDGLAFGAIQLDGDGNILQYNAAEGDITGRDPKQVIGKNFFKDVAPCTDSPEFYGKFKEGVASGNLNTMFEYTFDYQMTPTKVKVHMKKALSGDSYWVFVKRV
modifications: chemically attached chromophore
rate constant of the bleach (I1→I2) [6]: 3.4 ms^−1
